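In this assay, cells in 96-well plates receive the compound at five concentrations for 48 hours. Endpoints are linearly interpolated between the surrounding concentrations. GI50 = concentration required for 50% inhibition of growth. TGI: total growth inhibition.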
Key:
Test in all cases: inhibition of tumour cell growth, NCI panel, 48 h
[1] = system: SNB-19 CNS
[2] = system: SK-MEL-2 melanoma
[3] = system: U251 CNS
[4] = system: SNB-75 CNS
[5] = system: TK-10 renal
[6] = system: A498 renal
[7] = system: RXF 393 renal
[8] = system: PC-3 prostate
[9] = system: OVCAR-8 ovarian
[10] = system: NCI-H23 lung
[11] = system: MCF7 breast
[12] = system: NCI-H522 lung
[13] = system: 786-0 renal
[14] = system: NCI/ADR-RES ovarian
[15] = system: HCC-2998 colon
[16] = system: LOX IMVI melanoma
[17] = system: MDA-MB-231 breast
[18] = system: OVCAR-4 ovarian
[19] = system: HOP-62 NSCLC
[20] = system: MDA-MB-435
[21] = system: HCT-15 colon
[22] = system: SK-MEL-28 melanoma
[23] = system: SR leukemia
[24] = system: UACC-62 melanoma
[25] = system: DU-145 prostate
[26] = system: HOP-92 NSCLC
[27] = system: ACHN renal
[28] = system: SK-OV-3 ovarian
[29] = system: CAKI-1 renal
[30] = system: KM12 colon
[31] = system: SN12C renal
[32] = system: SF-268 CNS
[33] = system: NCI-H226 lung
[34] = system: IGROV1 ovarian
[35] = system: MOLT-4 leukemia
[36] = system: T-47D breast
[37] = system: SK-MEL-5 melanoma
[38] = system: HS 578T breast
[39] = system: NCI-H460 lung
[40] = system: A549 NSCLC
[41] = system: OVCAR-3 ovarian
[42] = system: UO-31 renal
[43] = system: SF-539 CNS
[44] = system: CCRF-CEM leukemia
[45] = system: MDA-N
[46] = system: UACC-257 melanoma
[47] = system: HL-60(TB) leukemia
[48] = system: SF-295 CNS
[49] = system: HCT-116 colon
[50] = system: SW-620 colon
[51] = system: MALME-3M melanoma
[52] = system: M14 melanoma
[53] = system: COLO 205 colon
[54] = system: BT-549 breast
[55] = system: OVCAR-5 ovarian
[56] = system: EKVX NSCLC
[57] = system: K-562 leukemia
[58] = system: HT29 colon
[59] = system: RPMI-8226 leukemia

COc1cc(/C=C2\N=C(c3ccccc3)N(/N=C3\C(=O)Nc4ccccc43)C2=O)cc(OC)c1OC
TGI [1]: > 100 µM | TGI [2]: > 100 µM | TGI [3]: > 100 µM | TGI [4]: > 100 µM | TGI [5]: > 100 µM | TGI [6]: > 100 µM | TGI [7]: > 100 µM | TGI [8]: > 100 µM | TGI [9]: > 100 µM | TGI [10]: > 100 µM | TGI [11]: > 100 µM | TGI [12]: > 100 µM | TGI [13]: > 100 µM | TGI [14]: > 100 µM | TGI [15]: > 100 µM | TGI [16]: > 100 µM | TGI [17]: > 100 µM | TGI [18]: > 100 µM | TGI [19]: > 100 µM | TGI [20]: > 100 µM | TGI [21]: > 100 µM | TGI [22]: > 100 µM | TGI [23]: > 100 µM | TGI [24]: > 100 µM | TGI [25]: > 100 µM | TGI [26]: > 100 µM | TGI [27]: > 100 µM | TGI [28]: > 100 µM | TGI [29]: > 100 µM | TGI [30]: > 100 µM | TGI [31]: > 100 µM | TGI [32]: > 100 µM | TGI [33]: > 100 µM | TGI [34]: > 100 µM | TGI [35]: > 100 µM | TGI [36]: > 100 µM | TGI [37]: > 100 µM | TGI [38]: > 100 µM | TGI [39]: > 100 µM | TGI [40]: > 100 µM | TGI [41]: > 100 µM | TGI [42]: > 100 µM | TGI [43]: > 100 µM | TGI [44]: > 100 µM | TGI [45]: > 100 µM | TGI [46]: > 100 µM | TGI [47]: > 100 µM | TGI [48]: > 100 µM | TGI [49]: > 100 µM | TGI [50]: > 100 µM | TGI [51]: > 100 µM | TGI [52]: > 100 µM | TGI [53]: > 100 µM | TGI [54]: > 100 µM | TGI [55]: > 100 µM | TGI [56]: > 100 µM | TGI [57]: > 100 µM | TGI [58]: > 100 µM

Cc1cc(N=Cc2c(CO)cnc(C)c2O)c(N=Cc2c(CO)cnc(C)c2O)cc1C.[Zn]
TGI [1]: > 100 µM | TGI [2]: > 100 µM | TGI [3]: > 100 µM | TGI [4]: > 100 µM | TGI [5]: > 100 µM | TGI [6]: > 100 µM | TGI [7]: > 100 µM | TGI [8]: > 100 µM | TGI [9]: > 100 µM | TGI [11]: > 100 µM | TGI [12]: > 100 µM | TGI [13]: > 100 µM | TGI [14]: > 100 µM | TGI [15]: > 100 µM | TGI [16]: > 100 µM | TGI [17]: > 100 µM | TGI [18]: > 100 µM | TGI [19]: > 100 µM | TGI [20]: > 100 µM | TGI [21]: > 100 µM | TGI [22]: > 100 µM | GI50 [59]: > 100 µM | TGI [59]: > 100 µM | GI50 [23]: > 100 µM | TGI [23]: > 100 µM | TGI [24]: > 100 µM | TGI [25]: > 100 µM | TGI [26]: > 100 µM | TGI [27]: > 100 µM | TGI [28]: > 100 µM | TGI [29]: > 100 µM | TGI [30]: > 100 µM | TGI [31]: > 100 µM | TGI [32]: > 100 µM | TGI [33]: > 100 µM | TGI [34]: > 100 µM | TGI [35]: > 100 µM | TGI [36]: > 100 µM | TGI [37]: > 100 µM | TGI [38]: > 100 µM | TGI [39]: > 100 µM | TGI [40]: > 100 µM | TGI [41]: > 100 µM | TGI [42]: > 100 µM | TGI [43]: > 100 µM | TGI [45]: > 100 µM | TGI [46]: > 100 µM | GI50 [47]: > 100 µM | TGI [47]: > 100 µM | TGI [48]: > 100 µM | TGI [49]: > 100 µM | TGI [50]: > 100 µM | TGI [52]: > 100 µM | TGI [53]: > 100 µM | TGI [54]: > 100 µM | TGI [55]: > 100 µM | TGI [56]: > 100 µM | TGI [58]: > 100 µM

Source: PubChem BioAssay (NCI)
